In data set [1] the test system is liver tissue of ob/ob mice. Kind of data set: Microscopic examination of liver tissue of ob/ob mice after 18 days of AS101 treatment. In kind it is in vivo. Particulars: 18 days AS101 treatment, vs control mice, FIG. 4. An excerpt:
Following 18 days treatment of the ob/ob mice with AS101 as described in Example 1, the animals were sacrificed. Samples of liver tissue were taken, fixed with formaldehyde and tissue slices were examined microscopically (FIG. 4).

The test system of the next data set is ob/ob mice. Kind of data set: AS101 in drinking water of ob/ob mice in metabolic cages: body weight, food intake, blood glucose. The data set is classed as in vivo. As for the experimental part:
Female ob/ob mice (8 weeks old) were placed in metabolic cages and were given free drinking water and chow. After 48 h, one group of 3 mice (the Control group) continued to receive water and chow. A second group of 3 mice received drinking water containing AS 101 (7 mg/L) in addition to the standard chow. The experiment was continued for 18 days and body weights were measured daily. On the average the mice consumed about 1.5 ml of water per 24 h, corresponding to 10 microgram AS101 per mouse per day. This value corresponds to 0.25 mg/kg body weight per 24 h.
On the average, food consumption was reduced by 26±7% (p<0.02, n=16, FIG. 2).
On the last day of treatment, tail blood was withdrawn and blood glucose was determined in three control mice and three mice of the AS101 group.

The test system of data set [2] is Swiss 3T3-F442A murine pre-adipocytes. Kind of data set: Differentiation of pre-adipocytes into mature adipocytes, oil red staining. The settings on record: AS101 0.2 micrograms/ml, six days in DMEM with 10% FBS, oil red stain, FIG. 6. In kind it is cell-based. As for the experimental part: To gain insight on the mechanism by which AS101 affects the adipose tissue, its effect was studied on an in-vitro model of differentiation of pre-adipocytes into mature adipocytes. It should be clarified here that adipocytes are fully differentiated cells. […] Besides increase in cell volume, the only way to gain weight in vivo is by generating new adipocytes from pre-adipocytes by differentiation. Swiss 3T3-F442A murine pre-adipocytes were grown in DMEM (GIBCO, USA) with 10% calf serum. To induce differentiation into mature adipocytes, confluent cell cultures were maintained in DMEM supplemented with 10% fetal bovine serum (FBS) for six days, either in the presence or in the absence of AS101 (0.2 micrograms/ml). The cultures were then stained with oil red, which specifically stains the fat droplets within the cells.

Data set [3] has as its system diet-induced obese C57BL/6 mice. The data set can be described thus: Body weight of diet-induced obese C57BL/6 mice injected daily with AS101. In kind it is in vivo. How it is done:
Since the obesity of ob/ob mice is of genetic origin, whereas obesity among human populations is largely due to excess eating over energy expenditure, the effect of AS101 on body weight was studied in diet-induced obese mice. Female mice were fed for 10 weeks with a high fat diet, resulting in moderate obesity (average weight 37 g). Mice were placed in metabolic cages and injected daily with either saline (Control group, 3 mice) or AS 101 (0.5 mg/kg body weight in saline, AS101 group, 3 mice). High fat diet was continued and the body weight was determined daily. […] Therefore, AS101 is an effective medicament for the treatment of diet-induced obesity.

The test system of another data set is 6-week-old mice. The settings on record: cited from earlier work.

Like-named read-outs stand apart in the source and are kept apart here.

Results on 1 molecule are retold here after patent US20060166957A1, “Methods of treating obesity and related disorders using tellurium selenium compounds” (priority 2003, published 2006).

In the case of `Cl[TeH]1(Cl)(Cl)OCCO1` [AS101, ammonium trichloro(dioxoethylene-O,O′)tellurate], the “number and size of adipocytes in liver tissue” value in data set [1] was “extensive reduction in the number of adipocytes and in their size”. For the same molecule, the body weight gain result in the data set on ob/ob mice (female ob/ob mice, AS101 7 mg/L in drinking water (0.25 mg/kg body weight per 24 h), 18 days, vs Control group, FIG. 1) is recorded as “did not gain weight significantly”. Also, in the data set on ob/ob mice (female ob/ob mice, AS101 7 mg/L in drinking water, daily food consumption, p<0.02, n=16, FIG. 2), the “reduction of food consumption, on the average” value is recorded as 26±7%. In the data set with ob/ob mice (ob/ob mice, tail blood on the last day of treatment (18 days), AS101 7 mg/L in drinking water, FIG. 3), the blood glucose result was “statistically significant (p<0.05) reduction”. Also, the “differentiation of pre-adipocytes into mature adipocytes (fat droplets)” value in data set [2] is given as “inhibited the differentiation”. In addition, the body weight entry in data set [3] (female mice on high fat diet, AS101 0.5 mg/kg body weight in saline injected daily, vs saline control, FIG. 5) is “reduced significantly and continued to drop through the entire study”. Also, in data set [3] (normal mice rendered obese by high-fat diet, AS101 by daily injections), the food intake entry is on record as “reduction of food intake”. The LD50 with 6-week-old mice was 300 μg/25 g of body weight; in the data set on 6-week-old mice (same value re-expressed) it was 12 mg/kg body weight.
